Patent publication US20210386706A1, “METHODS FOR THE TREATMENT OF SCLERODERMA” (Arena Pharmaceuticals, Inc., priority 2018, published 2021)

How the values were obtained:
lymphocytes = assay: single ascending dose and multiple ascending dose studies in healthy subjects; assay type: in vivo
S1P1 [1] = target: T1, S1P1 (Homo sapiens, UniProt P21453); assay: cAMP assay; assay type: cell-based; conditions: read-out: ECK, cAMP
S1P5 = S1P5 (Homo sapiens, UniProt Q9H228); assay: β-arrestin assay S1P5; assay type: cell-based
Chain of S1P5 (Q9H228 whole entry): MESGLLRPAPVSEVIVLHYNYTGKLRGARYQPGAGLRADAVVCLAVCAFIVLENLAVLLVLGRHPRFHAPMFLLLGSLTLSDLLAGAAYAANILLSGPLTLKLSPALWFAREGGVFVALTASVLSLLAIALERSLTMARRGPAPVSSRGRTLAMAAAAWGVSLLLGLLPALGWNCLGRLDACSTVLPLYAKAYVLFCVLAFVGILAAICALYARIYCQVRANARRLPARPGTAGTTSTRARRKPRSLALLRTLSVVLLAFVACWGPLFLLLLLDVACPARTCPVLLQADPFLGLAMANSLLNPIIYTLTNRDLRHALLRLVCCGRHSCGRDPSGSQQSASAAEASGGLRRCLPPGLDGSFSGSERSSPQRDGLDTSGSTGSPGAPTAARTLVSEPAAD

S1P2 = S1P2 (Homo sapiens, UniProt O95136); assay: β-arrestin assay S1P2; assay type: cell-based
Chain of S1P2 (O95136 whole entry): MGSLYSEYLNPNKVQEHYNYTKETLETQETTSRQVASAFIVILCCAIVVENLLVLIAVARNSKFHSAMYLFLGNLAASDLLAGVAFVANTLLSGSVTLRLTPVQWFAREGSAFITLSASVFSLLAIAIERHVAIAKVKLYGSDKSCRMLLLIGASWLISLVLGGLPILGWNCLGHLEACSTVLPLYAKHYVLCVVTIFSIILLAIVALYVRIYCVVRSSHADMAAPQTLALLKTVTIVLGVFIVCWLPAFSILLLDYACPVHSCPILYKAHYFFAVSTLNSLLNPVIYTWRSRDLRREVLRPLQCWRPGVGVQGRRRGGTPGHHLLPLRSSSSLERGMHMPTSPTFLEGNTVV

S1P1 [2] = target: T1, S1P1; assay: β-arrestin assay S1P1; assay type: cell-based
S1P3 = S1P3 (Homo sapiens, UniProt Q99500); assay: β-arrestin assay S1P3; assay type: cell-based
Chain of S1P3 (Q99500 whole entry): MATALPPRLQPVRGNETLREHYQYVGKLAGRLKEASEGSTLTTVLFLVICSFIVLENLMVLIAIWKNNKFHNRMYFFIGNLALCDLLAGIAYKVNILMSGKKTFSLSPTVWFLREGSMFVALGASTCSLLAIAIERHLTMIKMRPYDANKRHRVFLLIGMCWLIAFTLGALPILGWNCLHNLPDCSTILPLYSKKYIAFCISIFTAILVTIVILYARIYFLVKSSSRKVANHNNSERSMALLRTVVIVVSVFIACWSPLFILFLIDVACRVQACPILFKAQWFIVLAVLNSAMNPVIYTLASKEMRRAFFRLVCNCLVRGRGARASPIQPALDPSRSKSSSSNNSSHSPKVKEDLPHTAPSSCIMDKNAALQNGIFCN

S1P4 = target: T2, S1P4 (Homo sapiens, UniProt O95977); assay: β-arrestin assay S1P4; assay type: cell-based
T2 sequence (O95977 1-384): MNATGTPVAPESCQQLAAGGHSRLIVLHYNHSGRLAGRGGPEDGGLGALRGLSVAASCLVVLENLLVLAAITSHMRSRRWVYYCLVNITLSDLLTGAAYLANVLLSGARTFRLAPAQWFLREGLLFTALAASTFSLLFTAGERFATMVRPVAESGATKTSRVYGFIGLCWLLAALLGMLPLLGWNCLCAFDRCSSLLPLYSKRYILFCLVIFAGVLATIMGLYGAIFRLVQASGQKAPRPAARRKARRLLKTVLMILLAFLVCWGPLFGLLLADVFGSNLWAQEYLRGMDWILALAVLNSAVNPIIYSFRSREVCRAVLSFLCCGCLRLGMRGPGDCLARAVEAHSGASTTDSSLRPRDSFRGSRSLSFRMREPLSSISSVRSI

[3] = tested on: bleomycin-induced skin fibrosis; assay: bleomycin-induced rodent model of skin fibrosis; assay type: in vivo, male C57BL/6 mice; conditions: mice, PO QD
Protocol: Compound 1 was evaluated in a bleomycin-induced rodent model of skin fibrosis. Skin fibrosis was induced in male C57BL/6 mice (6-7 weeks old; 20-25 g) with bleomycin injections at a concentration of 0.5 mg/ml via subcutaneous (SC) route. The mice received 100 μl of bleomycin at 0.5 mg/ml dissolved in PBS every other day for 21 days. The following treatments were randomly assigned: 1.) sham+vehicle (10% HBPCD/saline) per oral (PO) once daily (QD); 2.) bleomycin+vehicle (10% HBPCD/saline) PO QD; 3.) bleomycin+1 mg/kg Compound 1 PO QD; 4.) bleomycin+3 mg/kg Compound 1 PO QD; 5.) bleomycin+1 mg/kg FTY720 PO 3×/week; 6.) bleomycin+90 mg/kg FTY720 intraperitoneal (IP) QD (FIG. 1). Skin tissue was harvested post-mortem, with half of the biopsy specimen fixed in 4% wt/vol. paraformaldehyde for histology and the other half snap frozen for collagen analysis (hydroxyproline assay). Histological sections (4 μm) were cut from paraffin-embedded PFA-fixed lesional skin tissue. Sections were stained with haematoxylin and eosin (H&E) and Masson's Trichrome. Images were captured at ×100 microscopic magnification for histological dermal thickness determination. Collagen deposition (FIG. 2A), dermal thickness (FIG. 2B), tissue sections (FIG. 2C), dermal fibrosis (FIG. 3A), inflammation (FIG. 3B), and average epidermal thickness (FIG. 3C) were evaluated.

T1 sequence (P21453 whole entry): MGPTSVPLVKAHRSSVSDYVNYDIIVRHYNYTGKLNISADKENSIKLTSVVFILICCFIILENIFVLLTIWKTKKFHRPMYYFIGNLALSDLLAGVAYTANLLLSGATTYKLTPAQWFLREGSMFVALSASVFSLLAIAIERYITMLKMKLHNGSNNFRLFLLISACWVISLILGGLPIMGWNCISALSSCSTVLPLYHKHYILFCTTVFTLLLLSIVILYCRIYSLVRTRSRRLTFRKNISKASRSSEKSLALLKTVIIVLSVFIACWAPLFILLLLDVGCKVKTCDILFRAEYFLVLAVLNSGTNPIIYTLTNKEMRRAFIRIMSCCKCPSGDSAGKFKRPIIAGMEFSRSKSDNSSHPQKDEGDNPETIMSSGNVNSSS

O=C(O)C[C@H]1CCc2c1[nH]c1ccc(OCc3ccc(C4CCCC4)c(C(F)(F)F)c3)cc21 [Compound 1, (R)-2-(7-(4-cyclopentyl-3-(trifluoromethyl)benzyloxy)-1,2,3,4-tetrahydrocyclopenta[b]indol-3-yl)acetic acid]
lymphocyte lowering (lymphocytes): demonstrated the lymphocyte lowering capabilities
EC50 (S1P1 [1]): 0.093 nM
EC50 (S1P5): 24.4 nM
EC50 (S1P2): > 10 µM
EC50 (S1P1 [2]): 6.1 nM
EC50 (S1P3): > 10 µM
EC50 (S1P4): 147 nM
dermal thickening ([3]; histology, FIG. 2B): significantly reduced
collagen deposition ([3]; hydroxyproline assay, FIG. 2A): significantly reduced
